Consider two molecules from patent US9532967B2, “Use of phenethyl caffeate derivatives in the preparation of a medicament against tumor angiogenesis” (priority 2010, dated 2017).

Assay [1] relates to human hepatocellular carcinoma BEL-7402 cell lines. Nature of the assay: Growth of tumors of BALB/c nude mice inoculated with BEL-7402 cells in vivo. To be noted: 20 mg/kg by gavage, 3 weeks. As for the experimental part: First, 1×10^6 cells of human hepatocellular carcinoma BEL-7402 cell lines were injected subcutaneously (sc) into the forelimbs of BALB/c male nude mice, and the mice with tumor were killed after the tumor was formed, the skin of the mice was cut off, and the complete tumor tissue was separated and removed, and then immersed into physiological saline and cut into pieces with diameter of 2 mm. The tumor tissue pieces were implanted subcutaneously into the forelimbs of nude mice in another group for drug experiments. The nude mice with tumor were randomly divided equally into an experimental group and control group, with 10 mice in each group. […] Experimental data, such as tumor size (i.e., long diameter a and short diameter b), experimental animal weight (g), etc., were recorded regularly, and photographs were taken. Measurement result was recorded every time, and the tumor volume and the ratio of tumor volume to tumor weight were calculated for each animal based on the measurement results.
Formula for calculating the tumor volume is: v=a×b2/2 (a represents the long diameter of the tumor and b represents the short diameter of the tumor, which are in unit of mm; and V is calculated in unit of mm^3). […]

Assay [2] has as its system angiogenesis model by culturing stromal cells and vascular endothlial cells (ECs) together. Briefly: Tumor angiogenesis mediated by pericytes (stromal cells co-cultured with vascular endothlial cells). The class given is cell-based. To be noted: for Length of the formed vessel network (Total Tube Length, TL, n = 8): control 436; for effect on tumor angiogenesis mediated by pericytes: concentrations of 50-100 μM, result in words. As for the experimental part: We constructed an angiogenesis model by culturing stromal cells and vascular endothlial cells (ECs) together. Stromal cells and endothlial cells were graciously provided by Vascular Biology Medical Center of Medical School of the State University in Indiana. The stromal cells were implanted into a cell culture dish, maintaining cell density of 6×10^6/cm^2, and ECs were implanted on the trophoblast cells of the stromal cells after the stromal cells were incubated in the EBM-2/5% FBS culture medium for 3 hours, with cell density of ECs reaching 1×10^6/cm^2. The two kinds of cells were co-cultured in EBM-2/5% FBS culture medium for six days, then the formation of tubular vessels was observed, and EC vessels were labeled through CD31 fluorescence staining and horseradish peroxidase staining.
Then, the inhibition of compounds phenethyl caffeate and 3,4-diacetyl phenethyl caffeate with concentrations of 50-100 μM on tumor angiogenesis mediated by pericytes was studied.

Assay [3] deals with vessel network model formed by culturing adult stem cells and vascular endothlial cells together. Briefly: Formation of vessel network in vitro (adult stem cells co-cultured with vascular endothlial cells). Type of assay: cell-based, human. To be noted: for lengths of the formed vessel networks (Total Tube Length, TL): co-culture six days. As for the experimental part: First, we constructed a vessel network model formed by culturing adult stem cells and vascular endothlial cells together. Adult stem cells have the function of differentiating into pericytes, and can secrete cytokines required for angiogenesis to promote the formation of new vessels. The isolated and cultured adult stem cells were cultured using EGM medium for 3-6 generations to be used. The isolated and cultured human endothlial cells were derived from the cord blood of healthy infants (38-40 weeks), in which monocytes were removed by gradient centrifugation, and the cells were cultured in EGM medium to obtain primary vascular endothlial cells, and 4-8 generations were applied after passage. The adult stem cells were implanted into a cell culture dish, maintaining cell density of 6×10^6/cm^2, and the vascular endothlial cells were implanted on the trophoblast cells of the adult stem cells after the adult stem cells were incubated at 37° C., 5% CO2 for 3 hours, and the cell density of the vascular endothlial cells reached 1×10^6/cm^2. The two kinds of cells were co-cultured for six days, then the formation of tubular networks was observed, and the new vessel networks were labeled through CD31 fluorescence staining and horseradish peroxidase staining.
Different doses of 3,4-diacetyl phenethyl caffeate (prepared according to conventional chemical method by the Laboratory of Peking University Health Science center) were co-cultured with the in vitro vessel network system. […] However, there is no significant difference among the total numbers of ECs of CD31+ in respective groups. The total numbers of ECs in the control group, DMSO group, 5 μm group, 10 μm group, 20 μm group, 50 μm group and 100 μm group are 7.52±1.24/mm^2, 8.66±1.31/mm^2, 8.87±1.59/mm^2, 6.0±1.72/mm^2, 6.22±1.42/mm^2, […], 8.33±0.79/mm^2 respectively, and there is no significant difference among respective groups through analysis.

As for `CC(=O)Oc1ccc(/C=C/C(=O)OCCc2ccccc2)cc1OC(C)=O` [3,4-diacetyl phenethyl caffeate], the “effect on the growth of tumors” value in assay [1] (result in words) is “inhibitory effect”. The “average tumor volume of the mice” value in assay [1] (six days every week, FIG. 2) is on record as “maintained at the original level, with no significant changes”. The figures for the “Length of the formed vessel network (Total Tube Length, TL, n = 8)” value in assay [2] (50 μM) and in assay [2] (100 μM) were 114 ± 20 and 20 ± 11, respectively. The entries for the “effect on tumor angiogenesis mediated by pericytes” value in assay [2] and in assay [2] (listed as diacetyl phenethyl caffeate) were “inhibitory effect” and “significant inhibitory effect”, respectively. In addition, the “numbers of branchs (NB) of the vessels” value is reported as 0.13±0.026 /mm^2 in assay [3] (50 μM group); 6.12±0.48 /mm^2 in assay [3] (5 μm group); 1.55±0.17 /mm^2 in assay [3] (10 μm group); 0.50±0.063 /mm^2 in assay [3] (20 μm group); 0.04±0.001 /mm^2 in assay [3] (100 μm group). The “lengths of the formed vessel networks (Total Tube Length, TL)” value in assay [3] (50 μM group) amounted to 0.084±0.032 mm/mm^2; in assay [3] (5 μm group), 2.802±0.212 mm/mm^2; in assay [3] (10 μm group), 0.874±0.117 mm/mm^2; in assay [3] (20 μm group), 0.337±0.89 mm/mm^2; in assay [3] (100 μm group), 0.0054±0.002 mm/mm^2. For the same molecule, the “total numbers of ECs (CD31+)” value in assay [3] (5 μm group) was 8.87±1.59 /mm^2; in assay [3] (10 μm group), 6.0±1.72 /mm^2; in assay [3] (20 μm group), 6.22±1.42 /mm^2; in assay [3] (100 μm group), 8.33±0.79 /mm^2. The “effect on the formation of vessel networks in vitro” value in assay [3] (result in words) is on record as “inhibitory effect”.
On to `O=C(/C=C/c1ccc(O)c(O)c1)OCCc1ccccc1` [phenethyl caffeate], for which the “Length of the formed vessel network (Total Tube Length, TL, n = 8)” value was 332 ± 24 in assay [2] (50 μM) and 314 ± 27 in assay [2] (100 μM). In assay [2], the “effect on tumor angiogenesis mediated by pericytes” value was “no inhibitory effect”.
